PMC9781010, “Polyphenolic Compounds Isolated from Marine Algae Attenuate the Replication of SARS-CoV-2 in the Host Cell through a Multi-Target Approach of 3CL^pro and PL^pro” (Marine Drugs, 2022)
Where two headings read alike, the source gives them in different places.

Columns and labels:
PL^pro (SARS-CoV-2) = PL^pro (SARS-CoV-2) (Severe acute respiratory syndrome coronavirus 2, UniProt P0DTD1); assay: biochemical; type: biochemical; details: for Mode of inhibition (Lineweaver–Burk plot): PL^pro, Vmax unchanged, Km increased with inhibitor concentration
PL^pro [1] = molecular target: PL^pro (UniProt P0DTD1); assay: Cell-based PLpro cleavage inhibition assay (dual luciferase, Vero-E6 cells); set-up: species or system SARS-CoV-2
Chain of PL^pro (UniProt P0DTD1) (P08659 whole entry, looked up, other chains not shown): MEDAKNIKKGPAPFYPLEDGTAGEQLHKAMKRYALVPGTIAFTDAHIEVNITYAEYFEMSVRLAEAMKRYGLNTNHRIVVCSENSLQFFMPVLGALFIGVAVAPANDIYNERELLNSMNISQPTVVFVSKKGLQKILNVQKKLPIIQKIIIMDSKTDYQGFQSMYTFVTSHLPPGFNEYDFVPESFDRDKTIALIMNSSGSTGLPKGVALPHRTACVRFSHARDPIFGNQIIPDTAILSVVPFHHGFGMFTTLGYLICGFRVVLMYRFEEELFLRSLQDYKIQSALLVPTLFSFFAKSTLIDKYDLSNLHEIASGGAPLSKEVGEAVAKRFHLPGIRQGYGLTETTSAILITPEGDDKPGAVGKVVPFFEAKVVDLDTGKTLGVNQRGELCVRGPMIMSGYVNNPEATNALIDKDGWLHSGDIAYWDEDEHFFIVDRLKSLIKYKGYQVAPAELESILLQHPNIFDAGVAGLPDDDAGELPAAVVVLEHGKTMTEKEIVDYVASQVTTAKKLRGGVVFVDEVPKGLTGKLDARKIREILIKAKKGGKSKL

SARS-CoV-2 = assay: Cytopathic effect (CPE) reduction assay; type: cell-based; details: for CPE reduction / inhibitory activity against SARS-CoV-2 (in words): no concentration stated
Procedure: The CPE reduction assay was performed according to the previously reported method. Briefly, the cells were seeded with 5 × 10^4 cells/well in a 96-well plate and incubated at 37 °C for 48 h. A total of 100 µL of the virus was treated in each well using DMEM media that was FBS free and 1% antibiotic to infect a 0.01 multiplicity of infection (MOI) and incubated for an additional 1 h at 37 °C. Subsequently, the infected cells were treated with samples after removing the virus and 72 h of incubation was performed, and the MTT solution was added and allowed to stand for a 4 h incubation period. The formazan crystals were dissolved and the absorbance was measured.

3CL^pro (SARS-CoV-2) = 3CL^pro (SARS-CoV-2) (Severe acute respiratory syndrome coronavirus 2, UniProt P0DTD1); assay: biochemical; type: biochemical; details: for Mode of inhibition (Lineweaver–Burk plot): 3CL^pro, Vmax unchanged, Km increased with inhibitor concentration
3CL^pro [2] = molecular target: 3CL^pro (UniProt P0DTD1); assay: Cell-based 3CLpro cleavage inhibition assay (dual luciferase, Vero-E6 cells); set-up: species or system SARS-CoV-2
Chain of 3CL^pro (UniProt P0DTD1) (P08659 whole entry, looked up, other chains not shown): as above

PL^pro [3] = molecular target: PL^pro (UniProt P08659+P0DTD1); assay: Cell-based PLpro cleavage inhibition assay (dual luciferase, Vero-E6 cells); set-up: species or system SARS-CoV-2; details: cell-based
Chain of PL^pro (UniProt P08659+P0DTD1) (P08659 whole entry, looked up, other chains not shown): as above

3CL^pro [4] = molecular target: 3CL^pro (UniProt P08659+P0DTD1); assay: Cell-based 3CLpro cleavage inhibition assay (dual luciferase, Vero-E6 cells); set-up: species or system SARS-CoV-2; details: cell-based
Chain of 3CL^pro (UniProt P08659+P0DTD1) (P08659 whole entry, looked up, other chains not shown): as above

[5] = cell-free cleavage of PL^pro, fluorogenic substrate, read-out: IC50 Value
[6] = at 6.25 µM, compared to Dieckol
[7] = cell-free cleavage of 3CL^pro, fluorogenic substrate, read-out: IC50 Value

Row | Compound | IC50 (PL^pro (SARS-CoV-2)) [µM] | Mode of inhibition (Lineweaver–Burk plot) (PL^pro (SARS-CoV-2)) | Cell-based inhibitory activity against proteolytic activity (in words) (PL^pro [1]) | CPE reduction / inhibitory activity against SARS-CoV-2 (in words) (SARS-CoV-2) | IC50 (3CL^pro (SARS-CoV-2)) [µM] | Mode of inhibition (Lineweaver–Burk plot) (3CL^pro (SARS-CoV-2)) | Cell-based inhibitory activity against proteolytic activity (in words) (3CL^pro [2]) | IC50 (PL^pro (SARS-CoV-2); [5]) [µM] | CPE reduction activity (SARS-CoV-2; [6]) | CPE reduction activity (SARS-CoV-2; at 25 µM) | IC50 (3CL^pro (SARS-CoV-2); [7]) [µM] | Concentrations with significant and dose-dependent inhibitory activity (PL^pro [3]) [µM] | Concentrations with significant and dose-dependent inhibitory activity (3CL^pro [4]) [µM]
1 | Oc1cc(O)cc(Oc2c(O)cc(O)c3c2Oc2c(O)cc(Oc4c(O)cc(Oc5c(O)cc(O)c6c5Oc5c(O)cc(O)cc5O6)cc4O)cc2O3)c1 [Dieckol] | 19.74 ± 0.09 | competitive inhibitors | significant and dose-dependent inhibitory activities | dose-dependent inhibitory activity | 5.49 ± 0.092 | competitive inhibitors | significant and dose-dependent inhibitory activities |  |  |  |  |  | 
2 | Oc1cc(O)cc(Oc2c(O)cc3c(c2O)Oc2cc(Oc4c(O)cc(O)cc4O)c(O)c(O)c2O3)c1 [Diphlorethohydroxycarmalol] |  | competitive inhibitors | significant and dose-dependent inhibitory activities | greater activities than IPA |  | competitive inhibitors | significant and dose-dependent inhibitory activities | 6.637 ± 0.056 | great CPE reduction activity | greatest CPE reduction activity | 3.12 ± 0.066 |  | 
3 | Oc1cc(O)c(Oc2cc(O)cc(O)c2-c2c(O)cc(O)cc2Oc2c(O)cc(O)cc2Oc2c(O)cc(O)c3c2Oc2c(O)cc(O)cc2O3)c(O)c1 [Eckmaxol] |  | competitive inhibitors | significant and dose-dependent inhibitory activities | greater activities than IPA |  | competitive inhibitors | significant and dose-dependent inhibitory activities | 19.83 ± 0.121 | great CPE reduction activity |  | 1.89 ± 0.078 |  | 
4 | Oc1cc(O)cc(Oc2cc(O)c(Oc3c(O)cc(O)cc3Oc3cc(O)c(Oc4cc(O)cc(O)c4Oc4cc(O)cc(O)c4Oc4cc(O)cc(O)c4Oc4cc(O)c(Oc5c(O)cc(O)cc5Oc5c(O)cc(Oc6c(O)cc(Oc7c(O)cc(Oc8c(O)cc(Oc9c(O)cc(Oc%10c(O)cc(Oc%11c(O)cc(O)cc%11O)cc%10O)cc9O)cc8O)cc7O)cc6O)cc5O)c(O)c4)c(O)c3)c(O)c2)c1 [Ishophloroglucin A] |  | competitive inhibitors | greatest inhibitory activity |  |  | competitive inhibitors | greatest inhibitory activity | 1.405 ± 0.007 | great CPE reduction activity |  | 0.481 ± 0.031 | 12.59 to 75.52 | 6.29 to 75.52
